Experimental data as given in patent publication US6066628A, “Non-iron metalloporphyrins and methods of use” (Emory University, priority 1998, dated 2000).

What was measured:
M. bovis = type: cell-based, Mycobacterium bovis; details: disc ~50 μg MP
Y. enterocolitica [1] = test: Disc diffusion sensitivity test; type: cell-based; details: disc ~50 μg MP
Y. enterocolitica [2] = test: microbe, parasite or virus in culture; type: cell-based
S. aureus [3] = test: Disc diffusion sensitivity test; type: cell-based, Staphylococcus aureus; details: for diameter (mm) of the inhibition zone: S. aureus, disc ~50 μg MP
B. subtilis = test: Disc diffusion sensitivity test; type: cell-based, Bacillus subtilis; details: for diameter (mm) of the inhibition zone: B. subtilis, disc ~50 μg MP
Ps. aeruginosa = test: Disc diffusion sensitivity test; type: cell-based, Pseudomonas aeruginosa; details: disc ~50 μg MP; note: key: -: resistant; N: not determined
N. meningitidis = test: Disc diffusion sensitivity test; type: cell-based; details: disc ~50 μg MP
S. crevisieae = test: Disc diffusion sensitivity test; type: cell-based, Saccharomyces cerevisiae; details: S. cerevisiae; disc ~50 μg MP
S. aureus [4] = type: cell-based, Staphylococcus aureus; details: for antibacterial activity: S. aureus; for Minimal inhibitory concentration (MIC): methicillin-resistant S. aureus IR219, Nutrient broth (Table 2)
S. marcescens = test: Disc diffusion sensitivity test; type: cell-based, Serratia marcescens; details: S. marcescens; disc ~50 μg MP
M. smegmatis [5] = type: cell-based, Mycobacterium smegmatis; details: M. smegmatis LR222; LB + Tween 80 (Table 2)
E. faecalis = test: Disc diffusion sensitivity test; type: cell-based, Enterococcus faecalis; details: disc ~50 μg MP; note: key: -: resistant; N: not determined
M. smegmatis [6] = test: Disc diffusion sensitivity test; type: cell-based, Mycobacterium smegmatis; details: disc ~50 μg MP
S. pyogenes A = test: Disc diffusion sensitivity test; type: cell-based, Streptococcus pyogenes; details: disc ~50 μg MP
K. oxytoca = test: Disc diffusion sensitivity test; type: cell-based, Klebsiella oxytoca; details: K. oxytoca; disc ~50 μg MP
F. menigosepticum = test: Disc diffusion sensitivity test; type: cell-based, Flavobacterium meningosepticum; details: F. meningosepticum; disc ~50 μg MP
E. aerogenes = test: Disc diffusion sensitivity test; type: cell-based, Enterobacter aerogenes; details: E. aerogenes; disc ~50 μg MP
K. pneumoniae = test: Disc diffusion sensitivity test; type: cell-based, Klebsiella pneumoniae; details: K. pneumoniae; disc ~50 μg MP
C. freundii = test: Disc diffusion sensitivity test; type: cell-based, Citrobacter freundii; details: C. freundii; disc ~50 μg MP
E. coli = test: Disc diffusion sensitivity test; type: cell-based, Escherichia coli; details: E. coli; disc ~50 μg MP
P. mirabills = test: Disc diffusion sensitivity test; type: cell-based, Proteus mirabilis; details: P. mirabilis; disc ~50 μg MP
S. aureus [7] = test: Minimal bactericidal concentration; type: cell-based, Staphylococcus aureus; details: reduces plating efficiency more than 99.9%; minimal exposure to light
Protocol: Minimal bactericidal concentrations (MBCs) were determined essentially the same way as MICs except that the amount of killing with a particular concentration of porphyrin derivative was determined by plating on solid microbiological media (LB plates or LB+Tween 80). Media were solidified by the incorporation of 1.5% agar (Difco Laboratories). Concentrations of porphyrins that produced 99.9% reduction in bacterial counts were considered bactericidal [Hindler et al. (1994) supra].
MBC were determined by plating bacterial cultures that have been incubate
in the presence of MPs at concentrations higher than MIC. MBC was defined
as a concentration of a particular MP which reduces the plating efficienc
more than 99.9%. Experiments were done with minimal exposure to light
(addition of porphyrins waa done in the presence of artifical light).

M. smegmatis [8] = test: Minimal bactericidal concentration; type: cell-based, Mycobacterium smegmatis; details: reduces plating efficiency more than 99.9%; minimal exposure to light
Y. enterocolitica [9] = test: Minimal bactericidal concentration; type: cell-based; details: reduces plating efficiency more than 99.9%; minimal exposure to light
bacteria = type: cell-based; details: listed as Manganese (+2)-meso-tetra-4-sulfonatophenyl porphine
M tuber. H37Rv = test: Disc diffusion sensitivity test; type: cell-based, Mycobacterium tuberculosis; details: disc ~50 μg MP
M tuber. H37Pa = test: Disc diffusion sensitivity test; type: cell-based, Mycobacterium tuberculosis; details: disc ~50 μg MP

Row | SMILES | diameter (mm) of the inhibition zone (M. bovis) | diameter (mm) of the inhibition zone (Y. enterocolitica [1]) | Minimal inhibitory concentration (MIC) (Y. enterocolitica [2]) | diameter (mm) of the inhibition zone (S. aureus [3]) | diameter (mm) of the inhibition zone (B. subtilis) | diameter (mm) of the inhibition zone (Ps. aeruginosa) | diameter (mm) of the inhibition zone (N. meningitidis) | diameter (mm) of the inhibition zone (S. crevisieae) | Minimal inhibitory concentration (MIC) (S. aureus [4]) [µg/mL] | diameter (mm) of the inhibition zone (S. marcescens) | Minimal inhibitory concentration (MIC) (M. smegmatis [5]) [µg/mL] | diameter (mm) of the inhibition zone (E. faecalis) | diameter (mm) of the inhibition zone (M. smegmatis [6]) | diameter (mm) of the inhibition zone (K. oxytoca) | diameter (mm) of the inhibition zone (F. menigosepticum) | diameter (mm) of the inhibition zone (E. aerogenes) | diameter (mm) of the inhibition zone (K. pneumoniae) | diameter (mm) of the inhibition zone (C. freundii) | diameter (mm) of the inhibition zone (E. coli) | diameter (mm) of the inhibition zone (P. mirabills) | also measured
1 | C=CC1=C(C)c2cc3[n-]c(cc4nc(cc5[n-]c(cc1n2)c(C)c5C=C)C(C)=C4CCC(=O)O)c(CCC(=O)O)c3C.[Zn+2] [Zn-PPIX] | - | - | > 40 | 12 mm | - | - | 10 mm | - | 3.2 | - | 20 | - | - |  |  |  |  |  |  |  | antibacterial activity (S. aureus [4]): some activity
2 | C=CC1=C(C)c2cc3[n-]c(cc4nc(cc5[n-]c(cc1n2)c(C)c5CCC(=O)O)C(CCC(=O)O)=C4C)c(C)c3C=C.[Cr+2] [Cr-PPIX] | - | - | 20 | 10 mm | - | - | - | - | > 40 | - | 20 | - | - |  |  |  |  |  |  |  | diameter (mm) of the inhibition zone (S. pyogenes A): -
3 | C=CC1=C(C)C2=Cc3c(C=C)c(C)c4[n]3[Mg][n]3c(c(C)c(CCC(=O)O)c3=CC3=NC(=C4)C(C)=C3CCC(=O)O)=CC1=N2 [Mg-PPIX] |  | - |  |  |  | - | - |  |  |  |  | - |  | - | - | - | - | - | - | - | zone of inhibition at 50 µg/disc (S. aureus [3]; Staphylococcus aureus, read-out: diameter (mm) of the inhibition zone): 15 mm; zone of inhibition at 50 µg/disc (B. subtilis; Bacillus subtilis, read-out: diameter (mm) of the inhibition zone): 15 mm; MIC (S. aureus [4]; Staphylococcus aureus, read-out: Minimal inhibitory concentration (MIC)): > 10 µg/mL
4 | C=CC1=C(C)c2cc3[n-]c(cc4nc(cc5[n-]c(cc1n2)c(C)c5CCC(=O)O)C(CCC(=O)O)=C4C)c(C)c3C=C.[Pd+2] [Pd-PPIX] | - |  | > 40 | - |  | - | - |  | 50 | - | 20 | - |  | - | - | - | - | - | - | - | 
5 | C=Cc1c2[n-]c(c1C)/C=c1\[n-]/c(c(C)c1C=C)=C\c1[n-]c(c(CCC(=O)O)c1C)C=c1[n-]/c(c(C)c1CCC(=O)O)=C\2.[Sn+4] [Sn-PPIX, tin-protoporphyrin IX] | - | - | 20 | - | - | - | - | - | > 40 | - | 20 | - | - |  |  |  |  |  |  |  | diameter (mm) of the inhibition zone (S. pyogenes A): -
6 | C=CC1=C(C)c2cc3[n-]c(cc4nc(cc5[n-]c(cc1n2)c(C)c5CCC(=O)O)C(CCC(=O)O)=C4C)c(C)c3C=C.[Ru+2] [Ru-PPIX] | - | - | > 40 | 12 mm | - | - | 11 mm | - | 5 | - | 20 | - | - |  | - |  |  |  |  |  | Minimal bactericidal concentration (MBC) (S. aureus [7]): 10; antibacterial activity (S. aureus [4]): some activity; Minimal bactericidal concentration (MBC) (M. smegmatis [8]): > 20; Minimal bactericidal concentration (MBC) (Y. enterocolitica [9]): > 40
7 | C=CC1=C(C)c2cc3[n-]c(cc4nc(cc5[n-]c(cc1n2)c(C)c5CCC(=O)O)C(CCC(=O)O)=C4C)c(C)c3C=C.[Ti+2] [Ti-PPIX] |  | - | > 40 | - | 12 mm | - | - |  | 40 |  | > 40 | - |  | - | - | - | - | - | - | - | 
8 | O=S(=O)([O-])c1ccc(-c2c3nc(c(-c4ccc(S(=O)(=O)[O-])cc4)c4ccc([n-]4)c(-c4ccc(S(=O)(=O)[O-])cc4)c4nc(c(-c5ccc(S(=O)(=O)[O-])cc5)c5ccc2[n-]5)C=C4)C=C3)cc1.[Cl-].[Mn+3] [Mn-meso, Mnmeso-tetra(4-sulfonatophenyl)-porphine chloride] |  | - |  | - | - | - | - |  |  | - |  |  |  | - | - | - | - | - | - | - | antibacterial activity (bacteria): inactive; diameter (mm) of the inhibition zone (M tuber. H37Rv): -; diameter (mm) of the inhibition zone (M tuber. H37Pa): -
9 | C=Cc1c(C)c2cc3[nH]c(cc4nc(cc5nc(cc1[nH]2)C(C)=C5CCC(=O)[O-])C(CCC(=O)[O-])=C4C)c(C)c3C=C.[Co+2] [Co-PPIX] | - | - | 20 | 15 mm | - | - | - | 18 mm | 40 | - | 20 | - | - |  |  |  |  |  |  |  | diameter (mm) of the inhibition zone (S. pyogenes A): -
